# Test results reported in ChEMBL document CHEMBL3885861, “Open TG-GATES”.
# Species: Rattus norvegicus
# Experiment: Open TG-GATES - Regimen: Single
# Assay type: toxicity, organism-based, Sprague-Dawley
# Design: regimen Single, gender Male, age 6 weeks
# Conditions: in vivo, po, 15 mg/kg, route gavage, dose level Low; for APTT / Bas / Eos / Fbg / Hb / Ht / Lym / MCH / MCHC / MCV / Mono / Neu / PT / Plat / RBC / Ret / WBC: tissue Blood; for KIDNEY_L / KIDNEY_R / KIDNEY_TOTAL: tissue Kidney; for LIVER: tissue Liver; for A/G / ALP / ALT / AST / BUN / CRE / Ca / Cl / DBIL / GLC / IP / K / LDH / Na / PL / RALB / TBIL / TC / TG / TP / gamma-GTP: tissue Plasma
compound,measurement,setting,value
CC(C)C(=O)Nc1ccc([N+](=O)[O-])c(C(F)(F)F)c1 [FLUTAMIDE],TERMINAL_BW,3 h,209 g
same,APTT,3 h,19 s
same,Bas,3 h,0%
same,Eos,3 h,0.8%
same,Fbg,3 h,219.6 mg/dL
same,Hb,3 h,13.5 g/dL
same,Ht,3 h,39.7%
same,Lym,3 h,80%
same,MCH,3 h,22 pg
same,MCHC,3 h,33.9%
same,MCV,3 h,64.6 fL
same,Mono,3 h,3%
same,Neu,3 h,14.6%
same,PT,3 h,12.6 s
same,Plat,3 h,128.6 x10_4/uL
same,RBC,3 h,615.6 x10_4/ul
same,Ret,3 h,7.5%
same,WBC,3 h,110 x10_2/uL
same,KIDNEY_L,3 h,0.9 g
same,KIDNEY_R,3 h,0.9 g
same,KIDNEY_TOTAL,3 h,1.8 g
same,LIVER,3 h,9.3 g
same,A/G,3 h,1.7
same,ALP,3 h,1106 IU/L
same,ALT,3 h,39 IU/L
same,AST,3 h,69.6 IU/L
same,BUN,3 h,12 mg/dL
same,CRE,3 h,0.4 mg/dL
same,Ca,3 h,11 mg/dL
same,Cl,3 h,103 meq/L
same,DBIL,3 h,0.2 mg/dL
same,GLC,3 h,212.6 mg/dL
same,IP,3 h,9.8 mg/dL
same,K,3 h,3.7 meq/L
same,LDH,3 h,187.2 IU/L
same,Na,3 h,140.4 meq/L
same,PL,3 h,177.2 mg/dL
same,RALB,3 h,3.5 g/dL
same,TBIL,3 h,0.3 mg/dL
same,TC,3 h,87.8 mg/dL
same,TG,3 h,127 mg/dL
same,TP,3 h,5.6 g/dL
same,gamma-GTP,3 h,1.2 IU/L
same,TERMINAL_BW,6 h,207.2 g
same,APTT,6 h,19.3 s
same,Bas,6 h,0%
same,Eos,6 h,0.8%
same,Fbg,6 h,228.6 mg/dL
same,Hb,6 h,13.3 g/dL
same,Ht,6 h,39.1%
same,Lym,6 h,78.2%
same,MCH,6 h,21.8 pg
same,MCHC,6 h,34%
same,MCV,6 h,63.9 fL
same,Mono,6 h,3.6%
same,Neu,6 h,16.8%
same,PT,6 h,12.7 s
same,Plat,6 h,126.9 x10_4/uL
same,RBC,6 h,611.2 x10_4/ul
same,Ret,6 h,7.5%
same,WBC,6 h,103.4 x10_2/uL
same,KIDNEY_L,6 h,0.9 g
same,KIDNEY_R,6 h,0.9 g
same,KIDNEY_TOTAL,6 h,1.8 g
same,LIVER,6 h,9.3 g
same,A/G,6 h,1.7
same,ALP,6 h,1000.8 IU/L
same,ALT,6 h,37 IU/L
same,AST,6 h,69.6 IU/L
same,BUN,6 h,8.8 mg/dL
same,CRE,6 h,0.3 mg/dL
same,Ca,6 h,10.6 mg/dL
same,Cl,6 h,103.2 meq/L
same,DBIL,6 h,0.1 mg/dL
same,GLC,6 h,194.8 mg/dL
same,IP,6 h,9.7 mg/dL
same,K,6 h,4 meq/L
same,LDH,6 h,154 IU/L
same,Na,6 h,140 meq/L
same,PL,6 h,159.2 mg/dL
same,RALB,6 h,3.5 g/dL
same,TBIL,6 h,0.2 mg/dL
same,TC,6 h,88.2 mg/dL
same,TG,6 h,53.8 mg/dL
same,TP,6 h,5.6 g/dL
same,gamma-GTP,6 h,1.2 IU/L
same,TERMINAL_BW,9 h,204.9 g
same,APTT,9 h,18 s
same,Bas,9 h,0%
same,Eos,9 h,1%
same,Fbg,9 h,213.6 mg/dL
same,Hb,9 h,13.6 g/dL
same,Ht,9 h,39.8%
same,Lym,9 h,77.2%
same,MCH,9 h,21.8 pg
same,MCHC,9 h,34.2%
same,MCV,9 h,63.6 fL
same,Mono,9 h,3.6%
same,Neu,9 h,17.6%
same,PT,9 h,13 s
same,Plat,9 h,121.6 x10_4/uL
same,RBC,9 h,624.8 x10_4/ul
same,Ret,9 h,7.7%
same,WBC,9 h,91.2 x10_2/uL
same,KIDNEY_L,9 h,0.9 g
same,KIDNEY_R,9 h,0.9 g
same,KIDNEY_TOTAL,9 h,1.9 g
same,LIVER,9 h,8.4 g
same,A/G,9 h,1.6
same,ALP,9 h,967.8 IU/L
same,ALT,9 h,31.8 IU/L
same,AST,9 h,62.2 IU/L
same,BUN,9 h,10.6 mg/dL
same,CRE,9 h,0.3 mg/dL
same,Ca,9 h,10.3 mg/dL
same,Cl,9 h,103.8 meq/L
same,DBIL,9 h,0.082 mg/dL
same,GLC,9 h,207.8 mg/dL
same,IP,9 h,9.8 mg/dL
same,K,9 h,3.7 meq/L
same,LDH,9 h,182.2 IU/L
same,Na,9 h,141.8 meq/L
same,PL,9 h,131.4 mg/dL
same,RALB,9 h,3.4 g/dL
same,TBIL,9 h,0.1 mg/dL
same,TC,9 h,69.8 mg/dL
same,TG,9 h,45.4 mg/dL
same,TP,9 h,5.6 g/dL
same,gamma-GTP,9 h,0.8 IU/L
same,TERMINAL_BW,24 h,218.9 g
same,APTT,24 h,17.6 s
same,Bas,24 h,0%
same,Eos,24 h,1%
same,Fbg,24 h,212 mg/dL
same,Hb,24 h,13.6 g/dL
same,Ht,24 h,40.3%
same,Lym,24 h,78.6%
same,MCH,24 h,22 pg
same,MCHC,24 h,33.8%
same,MCV,24 h,64.9 fL
same,Mono,24 h,3.8%
same,Neu,24 h,16%
same,PT,24 h,12.5 s
same,Plat,24 h,125.4 x10_4/uL
same,RBC,24 h,621.2 x10_4/ul
same,Ret,24 h,6.6%
same,WBC,24 h,79.6 x10_2/uL
same,KIDNEY_L,24 h,0.9 g
same,KIDNEY_R,24 h,1 g
same,KIDNEY_TOTAL,24 h,1.9 g
same,LIVER,24 h,10.7 g
same,A/G,24 h,1.7
same,ALP,24 h,981 IU/L
same,ALT,24 h,39 IU/L
same,AST,24 h,72.2 IU/L
same,BUN,24 h,13.8 mg/dL
same,CRE,24 h,0.4 mg/dL
same,Ca,24 h,10.4 mg/dL
same,Cl,24 h,104.6 meq/L
same,DBIL,24 h,0.094 mg/dL
same,GLC,24 h,205.6 mg/dL
same,IP,24 h,7.1 mg/dL
same,K,24 h,3.8 meq/L
same,LDH,24 h,155.2 IU/L
same,Na,24 h,141.8 meq/L
same,PL,24 h,146 mg/dL
same,RALB,24 h,3.5 g/dL
same,TBIL,24 h,0.2 mg/dL
same,TC,24 h,81.2 mg/dL
same,TG,24 h,83.4 mg/dL
same,TP,24 h,5.5 g/dL
same,gamma-GTP,24 h,1 IU/L
